# Reference: ChEMBL document CHEMBL1201862, “PubChem BioAssay data set” (2004)
# Active and inactive are the calls of the source.
# What was measured:
# [1] = system: H9c2; experiment: cells; assay type: functional, cell-based; conditions: Rattus norvegicus, H9c2, Myocardium;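 note: confirmatory concentration-response retest of ultra-high-throughput screening hits for modulation of myocardial damage; cell death induced by hydrogen peroxide oxidative stress; compound pretreatment for 60 min then peroxide exposure for 2 h; potency is for protecting the cells against peroxide damage rather than for killing them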
# [2] = system: HEK293; experiment: EBV LMP1 TES2 canonical NF-kB signalling blockers – cell-based, HEK293, luciferase, cherry-pick, dose response (AID 588343); assay type: functional; conditions: Homo sapiens
# [3] = target: T1, Endoribonuclease toxin MazF (Escherichia coli K-12, UniProt P0AE70); experiment: activation of MazEF endoribonuclease cleavage – biochemical, fluorescence, single-stranded RNA substrate, uHTS hits, dose response (AID 588481); assay type: functional
# T1 sequence (P0AE70 whole entry): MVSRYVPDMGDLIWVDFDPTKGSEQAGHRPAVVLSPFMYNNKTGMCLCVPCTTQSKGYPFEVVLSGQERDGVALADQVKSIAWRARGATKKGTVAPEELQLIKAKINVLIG
# [4] = target: T1, Endoribonuclease toxin MazF; experiment: substrate-only fluorescence increase artefacts – biochemical, single-stranded RNase substrate, counter-screen for MazEF activator project, dose response (AID 588502); assay type: functional
# [5] = target: Luciferin 4-monooxygenase (Photinus pyralis, UniProt P08659); experiment: inhibition of purified Photinus pyralis luciferase – biochemical, luminescence, dose response (AID 1891)
# [6] = Luminescence Cell-Based Dose Confirmation HTS to Identify Inhibitors of Platelet Dense Granule Release. [Related pubchem assays: 1663 (Primary HTS), 1678 (Summary of Project)]; assay type: functional
# [7] = target: Nuclear receptor subfamily 5 group A member 2 (Homo sapiens, UniProt O00482); assay type: functional, cell-based;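 note: HEK293T cells transfected with LRH-1 and a StAR promoter luciferase reporter; potency for inhibitors that lower LRH-1 driven reporter light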
# [8] = target: Steroidogenic factor 1 (Homo sapiens, UniProt Q13285); experiment: Counterscreen for inverse agonists of the liver receptor homolog-1 (LRH-1; NR5A2): Luminescence-based cell-based high throughput dose response assay to identify inverse agonists of the Steroidogenic Factor 1 Nuclear Receptor (SF1; NR5A1).; assay type: functional
# [9] = nonselective StAR promoter luciferase inhibitors – cell-based, luminescence, luciferase reporter, counter-screen for LRH-1 inverse agonist project, dose response (AID 651969); assay type: functional
# [10] = Trypanosoma cruzi growth suppression in host cells – NIH3T3 host cells, beta-gal luminescence, confirmation (AID 2044); assay type: functional, cell-based;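 note: intracellular parasites grown in NIH/3T3 mouse fibroblasts as host cells; luminescent beta-galactosidase reporter signal from transgenic T. cruzi replicating inside host cells; inhibitors lower the luminescence signal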
# [11] = NIH3T3 cell viability loss – ATP luminescence, mouse fibroblasts, counter-screen, dose response (AID 2010); assay type: functional, cell-based;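 note: cells exposed to compound for about 90 hours before reading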
# [12] = target: T2, Heat shock factor protein 1 (Mus musculus, UniProt P38532); experiment: decrease of HSF1-responsive luciferase luminescence – cell-based, NIH3T3, dose retest, confirmation (AID 2382); assay type: functional;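 note: NIH3T3 fibroblasts with HSF1-driven luciferase reporter stressed by proteasome inhibitor MG132; luminescence from HSF1-driven luciferase expression after 8 hours of MG132 stress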
# T2 sequence (P38532 whole entry): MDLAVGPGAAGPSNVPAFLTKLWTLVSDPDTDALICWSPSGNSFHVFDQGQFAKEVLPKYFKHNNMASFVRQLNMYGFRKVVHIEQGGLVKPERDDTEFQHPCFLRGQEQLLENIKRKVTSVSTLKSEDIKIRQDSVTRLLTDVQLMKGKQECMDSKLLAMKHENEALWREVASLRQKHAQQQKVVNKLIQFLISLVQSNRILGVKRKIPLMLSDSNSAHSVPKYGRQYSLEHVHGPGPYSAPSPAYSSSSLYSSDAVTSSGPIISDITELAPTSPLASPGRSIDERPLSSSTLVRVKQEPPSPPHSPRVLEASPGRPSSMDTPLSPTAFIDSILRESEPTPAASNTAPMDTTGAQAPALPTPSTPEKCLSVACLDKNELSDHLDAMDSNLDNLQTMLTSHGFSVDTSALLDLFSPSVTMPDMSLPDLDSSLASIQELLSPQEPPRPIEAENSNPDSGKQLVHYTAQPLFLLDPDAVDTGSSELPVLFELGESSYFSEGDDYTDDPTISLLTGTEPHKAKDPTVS
# [13] = luciferase reporter signal suppression in cells – H4 neuroglioma cells, luminescence, dose response (AID 1990); assay type: functional, cell-based
# [14] = Luminescence Cell-Based Dose Response HTS to Identify Inhibitors of 5'UTR Stem-Loop Driven Prion Protein mRNA Translation in H4 Neuroglioblastoma Cells. [Related pubchem assays: 1827 (Project Summary), 1813 (Primary HTS)]; assay type: functional
# [15] = alpha-synuclein stem-loop luciferase translation blockers – H4 neuroglioma cells, luminescence, confirmation (AID 1988); assay type: functional, cell-based
# [16] = target: T3, Cytochrome P450 1A2 (Homo sapiens, UniProt P05177);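 note: PubChem cytochrome P450 panel assay, CYP1A2 panel member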
# T3 sequence (P05177 whole entry): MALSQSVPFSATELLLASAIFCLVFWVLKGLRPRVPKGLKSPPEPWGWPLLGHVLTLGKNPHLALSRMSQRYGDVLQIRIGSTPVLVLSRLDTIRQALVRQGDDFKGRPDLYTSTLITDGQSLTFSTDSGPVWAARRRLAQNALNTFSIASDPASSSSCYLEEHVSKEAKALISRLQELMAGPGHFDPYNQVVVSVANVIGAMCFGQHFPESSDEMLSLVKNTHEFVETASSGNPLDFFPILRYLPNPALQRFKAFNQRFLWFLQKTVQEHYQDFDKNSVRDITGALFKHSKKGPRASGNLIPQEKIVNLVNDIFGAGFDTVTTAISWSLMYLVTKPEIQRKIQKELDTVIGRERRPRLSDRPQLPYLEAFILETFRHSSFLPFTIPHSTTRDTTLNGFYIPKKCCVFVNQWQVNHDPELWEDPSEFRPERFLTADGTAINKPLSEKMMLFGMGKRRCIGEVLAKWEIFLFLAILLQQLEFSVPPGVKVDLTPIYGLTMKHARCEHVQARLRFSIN
# [17] = target: Cytochrome P450 2C9 (Homo sapiens, UniProt P11712)
# [18] = target: Cytochrome P450 3A4 (Homo sapiens, UniProt P08684);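 note: CYP3A4 tested as one member of a cytochrome P450 panel screen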
# [19] = target: T4, DNA repair protein RAD52 homolog (Homo sapiens, UniProt P43351); assay type: functional, biochemical
# T4 sequence (P43351 whole entry): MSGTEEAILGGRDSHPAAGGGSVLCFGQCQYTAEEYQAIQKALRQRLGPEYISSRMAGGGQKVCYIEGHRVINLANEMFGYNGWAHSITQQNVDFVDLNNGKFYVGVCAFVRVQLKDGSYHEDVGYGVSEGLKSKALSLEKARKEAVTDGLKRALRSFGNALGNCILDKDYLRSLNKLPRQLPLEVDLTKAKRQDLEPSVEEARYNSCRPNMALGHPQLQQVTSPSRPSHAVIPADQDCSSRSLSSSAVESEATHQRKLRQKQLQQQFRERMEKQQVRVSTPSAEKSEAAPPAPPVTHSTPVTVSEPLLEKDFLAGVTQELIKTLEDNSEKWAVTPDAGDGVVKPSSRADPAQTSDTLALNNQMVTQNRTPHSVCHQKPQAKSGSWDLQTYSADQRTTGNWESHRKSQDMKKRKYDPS
# [20] = target: Cytochrome P450 2D6 (Homo sapiens, UniProt P10635);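 note: CYP2D6 member of a cytochrome P450 panel assay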
# [21] = Luminescence Cell-Based Dose Retest to Confirm Inhibitors of Cancer Stem Cells. [Related pubchem assays (depositor defined):AID2717, AID2721]; assay type: functional; conditions: Homo sapiens
# [22] = target: T5, High affinity choline transporter 1 (Homo sapiens, UniProt Q9GZV3); experiment: human choline transporter blockers, potency – cell-based, 5-point CRC, membrane potential dye, dose response (AID 504840); assay type: functional
# T5 sequence (Q9GZV3 whole entry): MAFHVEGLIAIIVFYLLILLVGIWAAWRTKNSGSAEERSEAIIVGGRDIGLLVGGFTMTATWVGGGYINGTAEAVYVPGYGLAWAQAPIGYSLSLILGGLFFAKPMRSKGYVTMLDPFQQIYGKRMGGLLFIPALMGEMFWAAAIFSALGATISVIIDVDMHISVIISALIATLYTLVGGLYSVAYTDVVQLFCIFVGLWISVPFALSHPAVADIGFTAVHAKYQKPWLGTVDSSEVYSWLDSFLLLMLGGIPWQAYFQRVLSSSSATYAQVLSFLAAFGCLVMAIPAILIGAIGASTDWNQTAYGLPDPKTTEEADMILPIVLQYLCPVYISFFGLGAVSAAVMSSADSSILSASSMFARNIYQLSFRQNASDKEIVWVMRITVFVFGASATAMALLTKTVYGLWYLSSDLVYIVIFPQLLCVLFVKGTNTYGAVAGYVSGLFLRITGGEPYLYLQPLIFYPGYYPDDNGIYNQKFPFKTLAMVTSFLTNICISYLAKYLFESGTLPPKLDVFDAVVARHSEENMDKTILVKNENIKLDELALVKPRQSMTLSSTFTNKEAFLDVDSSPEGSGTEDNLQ
# [23] = intracellular Trypanosoma cruzi inhibitors in host cells – cell-based, plate reader, cherry-pick samples, set 3, dose response (AID 651818); assay type: functional;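 note: compounds incubated with infected cells for about four days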
# Sequence of Steroidogenic factor 1 (Q13285 whole entry): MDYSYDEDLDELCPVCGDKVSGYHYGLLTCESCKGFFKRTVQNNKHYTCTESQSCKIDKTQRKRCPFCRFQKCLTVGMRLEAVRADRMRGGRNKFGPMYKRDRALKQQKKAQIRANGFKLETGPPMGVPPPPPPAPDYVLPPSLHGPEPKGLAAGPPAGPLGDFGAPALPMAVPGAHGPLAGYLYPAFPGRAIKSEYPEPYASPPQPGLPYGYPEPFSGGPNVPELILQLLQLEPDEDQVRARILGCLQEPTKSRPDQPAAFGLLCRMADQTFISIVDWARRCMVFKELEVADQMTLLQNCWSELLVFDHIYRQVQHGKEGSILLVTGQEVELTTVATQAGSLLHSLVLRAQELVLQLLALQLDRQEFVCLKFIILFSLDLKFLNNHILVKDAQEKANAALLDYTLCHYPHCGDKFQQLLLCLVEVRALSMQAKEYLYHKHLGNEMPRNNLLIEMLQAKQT
# Sequence of Nuclear receptor subfamily 5 group A member 2 (O00482 whole entry): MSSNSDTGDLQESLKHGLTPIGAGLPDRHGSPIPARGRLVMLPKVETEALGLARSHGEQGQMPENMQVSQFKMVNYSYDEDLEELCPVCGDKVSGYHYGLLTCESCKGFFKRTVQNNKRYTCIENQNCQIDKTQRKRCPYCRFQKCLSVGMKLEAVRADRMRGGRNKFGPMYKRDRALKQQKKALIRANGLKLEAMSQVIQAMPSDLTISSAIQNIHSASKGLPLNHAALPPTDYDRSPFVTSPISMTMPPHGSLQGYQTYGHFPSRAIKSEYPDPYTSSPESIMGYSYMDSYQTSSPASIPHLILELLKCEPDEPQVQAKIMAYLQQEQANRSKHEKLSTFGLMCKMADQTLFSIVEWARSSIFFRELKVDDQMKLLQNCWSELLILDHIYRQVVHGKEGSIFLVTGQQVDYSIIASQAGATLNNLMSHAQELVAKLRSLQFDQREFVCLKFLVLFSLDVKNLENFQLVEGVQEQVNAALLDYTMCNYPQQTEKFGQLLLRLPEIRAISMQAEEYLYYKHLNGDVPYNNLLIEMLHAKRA
# Sequence of Cytochrome P450 3A4 (P08684 whole entry): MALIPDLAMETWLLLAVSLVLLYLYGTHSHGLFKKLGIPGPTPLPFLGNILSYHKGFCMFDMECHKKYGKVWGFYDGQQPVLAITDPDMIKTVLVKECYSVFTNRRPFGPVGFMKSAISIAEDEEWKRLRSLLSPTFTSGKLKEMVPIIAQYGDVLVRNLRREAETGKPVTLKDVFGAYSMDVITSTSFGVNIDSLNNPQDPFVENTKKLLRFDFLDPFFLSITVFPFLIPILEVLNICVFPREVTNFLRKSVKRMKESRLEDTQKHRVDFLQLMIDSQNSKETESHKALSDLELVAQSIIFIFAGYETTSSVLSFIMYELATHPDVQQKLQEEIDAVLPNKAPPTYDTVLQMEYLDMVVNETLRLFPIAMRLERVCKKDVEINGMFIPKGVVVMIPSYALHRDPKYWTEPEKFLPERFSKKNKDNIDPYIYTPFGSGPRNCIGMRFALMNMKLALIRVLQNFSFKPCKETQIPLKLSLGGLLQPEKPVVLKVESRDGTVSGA
# Sequence of Cytochrome P450 2C9 (P11712 whole entry): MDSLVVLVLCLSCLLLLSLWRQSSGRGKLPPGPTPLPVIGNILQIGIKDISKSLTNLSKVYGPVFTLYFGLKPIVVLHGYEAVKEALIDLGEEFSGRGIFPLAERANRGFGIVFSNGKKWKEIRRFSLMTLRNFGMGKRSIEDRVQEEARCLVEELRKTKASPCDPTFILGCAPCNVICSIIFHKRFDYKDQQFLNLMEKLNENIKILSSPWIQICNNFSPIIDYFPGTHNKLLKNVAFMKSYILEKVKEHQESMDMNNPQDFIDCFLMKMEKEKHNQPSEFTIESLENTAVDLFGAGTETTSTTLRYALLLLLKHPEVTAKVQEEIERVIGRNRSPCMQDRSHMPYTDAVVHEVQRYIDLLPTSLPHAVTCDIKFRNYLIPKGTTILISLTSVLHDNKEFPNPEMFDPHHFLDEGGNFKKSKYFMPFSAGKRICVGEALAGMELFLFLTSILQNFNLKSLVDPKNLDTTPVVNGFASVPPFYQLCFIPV
# Sequence of Cytochrome P450 2D6 (P10635 whole entry): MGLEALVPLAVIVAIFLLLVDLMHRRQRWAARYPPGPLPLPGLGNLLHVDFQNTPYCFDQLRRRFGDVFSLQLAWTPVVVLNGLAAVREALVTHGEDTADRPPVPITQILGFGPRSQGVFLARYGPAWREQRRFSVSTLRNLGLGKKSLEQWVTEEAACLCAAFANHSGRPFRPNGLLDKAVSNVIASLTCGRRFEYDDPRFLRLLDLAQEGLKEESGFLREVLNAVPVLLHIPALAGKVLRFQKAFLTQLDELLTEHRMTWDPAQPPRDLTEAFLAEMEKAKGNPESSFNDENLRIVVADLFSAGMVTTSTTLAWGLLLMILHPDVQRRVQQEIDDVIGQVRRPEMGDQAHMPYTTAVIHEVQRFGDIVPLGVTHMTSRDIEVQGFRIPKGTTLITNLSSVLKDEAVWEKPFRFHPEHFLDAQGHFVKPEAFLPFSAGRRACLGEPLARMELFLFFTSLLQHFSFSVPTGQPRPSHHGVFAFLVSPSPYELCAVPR
# Sequence of Luciferin 4-monooxygenase (P08659 whole entry): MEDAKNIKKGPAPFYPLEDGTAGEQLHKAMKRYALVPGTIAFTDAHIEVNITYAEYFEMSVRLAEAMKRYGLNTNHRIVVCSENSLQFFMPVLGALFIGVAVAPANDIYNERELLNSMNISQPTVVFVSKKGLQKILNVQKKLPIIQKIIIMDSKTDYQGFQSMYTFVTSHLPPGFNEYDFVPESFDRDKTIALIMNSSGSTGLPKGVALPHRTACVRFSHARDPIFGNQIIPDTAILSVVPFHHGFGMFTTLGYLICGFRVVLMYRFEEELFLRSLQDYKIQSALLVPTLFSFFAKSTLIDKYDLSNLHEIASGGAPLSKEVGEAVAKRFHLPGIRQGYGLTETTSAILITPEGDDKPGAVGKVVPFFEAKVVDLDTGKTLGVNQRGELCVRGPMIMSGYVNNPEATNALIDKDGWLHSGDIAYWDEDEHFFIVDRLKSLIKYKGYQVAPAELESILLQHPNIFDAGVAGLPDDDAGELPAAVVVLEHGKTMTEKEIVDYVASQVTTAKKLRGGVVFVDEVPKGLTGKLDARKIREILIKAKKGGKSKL
smiles,measurement,setting,value
CNS(=O)(=O)c1ccc2nc(NC(=O)/C=C/c3ccco3)sc2c1,IC50,[1],> 79 µM (inactive)
CC(=O)c1cccc(NC(=O)Nc2ccc(C(=O)N3CCOCC3)cc2)c1,AC50,[2],31.8 µM (active)
Cc1ccc(N/C=C2/C(=O)N(c3nccs3)C(=O)c3ccccc32)c(C)c1,EC50,[3],> 99 µM (inactive)
same,EC50,[4],> 99 µM (inactive)
CCc1cc(=O)oc2c(C)c(OCC(=O)NC3CC(C)(C)NC(C)(C)C3)ccc12,EC50,[5],> 112 µM (not active)
same,EC50,[6],> 112 µM (not active)
same,IC50,[7],35.9 µM (inactive)
same,IC50,[8],1.82 µM (active)
same,IC50,[9],35.9 µM (inactive)
Cc1ccccc1Nc1nc(-c2cccnc2)nc2ccccc12,EC50,[10],0.741 µM (active)
same,EC50,[11],> 60 µM (inconclusive)
same,IC50,[7],15.5 µM (inactive)
same,IC50,[8],12.6 µM (inactive)
same,IC50,[9],24.9 µM (inactive)
Cc1c(C(=O)C2=C(O)C(=O)N(CCN3CCOCC3)C2c2ccccn2)cnn1-c1ccccc1 (stereo not drawn),EC50,[12],1.29 µM (active)
same,AC50,[2],2.31 µM (active)
CCN(CC)c1ccc(C(=O)NNC(=O)CCc2nc(O)c3ccccc3n2)cc1,IC50,[1],18 µM (active)
Cn1c(/C=C/c2ccccc2[N+](=O)[O-])nc2ccccc2c1=O,EC50,[3],> 99 µM (inactive)
same,EC50,[4],> 99 µM (inactive)
COCCn1c(C)cc(C(=O)COC(=O)c2[nH]nc3ccccc23)c1C,EC50,[13],4.23 µM (inconclusive)
same,EC50,[14],4.02 µM (active)
same,EC50,[15],1.58 µM (active)
same,AC50,[2],2.08 µM (active)
Cn1cccc1C(=O)N1CCC2(CC1)CN(C(c1ccccc1)c1ccccc1)C2,AC50,[16],31.6 µM (inconclusive)
same,AC50,[17],39.8 µM (inconclusive)
same,AC50,[18],inconclusive
CCCc1cc(=O)oc2cc(C)cc(OCC(=O)Nc3ccccn3)c12,IC50,[7],3.99 µM (active)
same,IC50,[8],0.802 µM (active)
same,IC50,[9],35.9 µM (inactive)
COc1ccccc1Nc1nc2ccc(C)cc2cc1C#N,EC50,[3],> 99 µM (inactive)
same,EC50,[4],58.3 µM (inactive)
CCOc1ccc(OCc2cccc(C(=O)N3CCCC3)c2)cc1,AC50,[2],4.43 µM (active)
OC(CN1CCCCC1)Cn1c2ccccc2c2cc(Br)ccc21 (stereo not drawn),AC50,[19],19 µM (active)
O=C(c1ccco1)N1CCC2(CC1)CN(c1ccccn1)C2,AC50,[20],15.8 µM (inconclusive)
same,AC50,[18],inconclusive
Cc1cc(C)c2sc(N(CCCN(C)C)C(=O)CN3C(=O)c4ccccc4C3=O)nc2c1,AC50,[19],9.02 µM (active)
COc1cc2c(cc1OC)C(/C=C(\O)c1ccc([N+](=O)[O-])c(C)c1)=NCC2,EC50,[3],> 99 µM (inactive)
same,EC50,[4],43.8 µM (inactive)
Cc1ccc(NC(=O)c2[nH]cnc2C(=O)NCCCNC(=O)c2nc[nH]c2C(=O)Nc2ccc(C)cc2)cc1,AC50,[21],3.39 µM (active)
same,IC50,[1],> 79 µM (inactive)
CCc1cc(=O)oc2cc(C)cc(OCC(=O)NC3CC3)c12,IC50,[7],0.292 µM (active)
same,IC50,[8],0.359 µM (active)
same,IC50,[9],35.9 µM (inactive)
Nc1ccc(C(=O)NN2C(=O)[C@H](Cl)C2c2ccc(Cl)cc2)cc1 (stereo partly drawn),IC50,[7],11.9 µM (inactive)
same,IC50,[8],11.7 µM (inactive)
same,IC50,[9],28.8 µM (inactive)
CCCCN(CCCC)CCNC(=O)c1cn(C)c2ccc(S(=O)(=O)N(C)C3CCCCC3)cc2c1=O,IC50,[22],15.6 µM (active)
COc1cc(C(=O)NCC(=O)N/N=C/c2ccc(-c3cccc([N+](=O)[O-])c3)o2)cc(OC)c1OC,IC50,[1],10.6 µM (active)
COc1ccc(/C=N/NC(=O)c2cccnc2)cc1CSc1nc2ccccc2s1,IC50,[1],21.2 µM (active)
C[C@H](CO)N1C[C@H](C)[C@H](CN(C)C(=O)Nc2ccccc2)Oc2ncc(C#Cc3ccc(C(F)(F)F)cc3)cc2C1=O,AC50,[23],1.37 µM (active)
Cc1noc(C)c1S(=O)(=O)Nc1ccc2c(c1)CC(=O)N([C@H](C)CO)C[C@@H](C)[C@@H](CN(C)Cc1ccc(Cl)c(Cl)c1)O2,AC50,[23],6.96 µM (active)
C[C@H]1CN([C@@H](C)CO)C(=O)Cc2cc(NC(=O)Nc3ccc(C(F)(F)F)cc3)ccc2O[C@H]1CN(C)Cc1ccc(C(F)(F)F)cc1,AC50,[23],4.47 µM (active)
C[C@@H]1CN([C@H](C)CO)C(=O)Cc2cc(NC(=O)Nc3ccc(C(F)(F)F)cc3)ccc2O[C@@H]1CN(C)Cc1ccc(C(F)(F)F)cc1,AC50,[23],1.19 µM (active)
C[C@@H]1CCCCO[C@@H](CN(C)Cc2ccc(Cl)c(Cl)c2)[C@@H](C)CN([C@H](C)CO)C(=O)c2cc(NS(=O)(=O)c3ccc(Cl)cc3)ccc2O1,AC50,[23],6.5 µM (active)
CN(C)/C=c1\sc2c(C#N)cc(C(=O)c3ccc(Br)cc3)n2c1=O,EC50,[3],> 99 µM (inactive)
same,EC50,[4],22.3 µM (inactive)
CC(=O)Nc1cc(Cl)c(/N=C/c2ccc(O)cc2O)cc1Cl,EC50,[3],> 99 µM (inactive)
same,EC50,[4],> 99 µM (inactive)
